The data set can be described thus: storage stability of the solid salt forms at 90° C. for 4 days (discoloration, decomposition). Format: physicochemical.

This is an account of results in patent publication US6686379B2, “Salt form of pantoprazole” (Altana Pharma AG, priority 1998, dated 2004).

Turning to `COc1ccnc(C[S+]([O-])c2nc3cc(OC(F)F)ccc3[n-]2)c1OC.COc1ccnc(C[S+]([O-])c2nc3cc(OC(F)F)ccc3[n-]2)c1OC.O.O.[Mg+2]` (centres unmarked) [pantoprazole magnesium dihydrate], where the note is “4 days at 90° C.”, the discoloration or decomposition entry was “almost no discoloration or decomposition” and the stability entry is “completely stable”. Besides, the “stability properties in comparison with other forms” value (compared with pantoprazole itself, pantoprazole sodium sesquihydrate and pantoprazole sodium monohydrate) is listed as “very considerably improved stability properties”.
Regarding `COc1ccnc(C[S+]([O-])c2nc3ccc(OC(F)F)cc3[nH]2)c1OC` (centres unmarked) [pantoprazole sodium sesquihydrate, sodium[5-[difluoromethoxy]-2-[[3,4-dimethoxy-2-pyridinyl]methyl]sulfinyl]-1H-benzimidazolide]sesquihydrate, reference compound], where the note is “4 days at 90° C.”, the discoloration or decomposition result is given as “turn brown-red” and the “formation of decomposition products” value is given as “considerable amounts of decomposition products”.
